According to patent US9012435B2, “Glucocorticoids attached to nitrate esters via an aromatic linker in position 21 and their use in ophthalmology” (Nicox S.A., priority 2008, dated 2015):
Where two headings read alike, the source gives them in different places. Blank lines part the entries; values can stand above or below the molecule they belong to.

Tests used:
[1] = tested on: isolated rabbit thoracic aorta preparations; experiment: Assay on vascular tone (vasorelaxation of methoxamine-precontracted aortic rings); conditions: for EC50: Oryctolagus cuniculus, read-out: EC50 (concentration producing 50% of the maximum relaxation)
Experimental: The ability of the compounds of the invention to induce vasorelaxation in comparison to precursor compounds was tested in vitro in isolated rabbit thoracic aorta preparations (Wanstall J. C. et al., Br. J. Pharmacol., 134:463-472, 2001). Male New Zealand rabbits (1,8-2 Kg) were used. The animals were anaesthetized with sodium thiopental (50 mg/kg, iv), sacrificed by exsanguinations and then the thorax was opened and the aorta dissected. The aortas were placed immediately in Krebs-HEPES buffer (pH 7.4; composition mM: NaCl 130.0, Kcl 3.7, […] 14.9, KH2PO4 1.2, MgSO4.7H2O 1.2, Glucose 11.0, HEPES 10.0, CaCl2.2H2O 1.6) and cut into ring segments (4-5 mm in length). Each ring was placed in a 5 ml tissue bath filled with Krebs-HEPES buffer (37° C.) aerated with 95% O2 and 5% CO2 and was then attached to a force transducer (Grass FT03), connected to a BIOPAC MP150 System for measurement of the isometric tension^2. The preparations were allowed to equilibrate for 1 h at a resting tension of 2 g with changes of the buffer every 15 minutes and then stimulated by exposure to 90 mM KCl (3 times) with intervening washings. After equilibration, the rings were precontracted submaximally with methoxamine (3 μM) and, when the contraction reach a steady state a cumulative concentration-response curve to the test compounds was obtained. The time intervals between doses were based on the time needed to reach a full a steady state response.
Responses to test compounds were expressed as a percentage of residual contraction and plotted against concentration of test compound. EC50 values (where EC50 is the concentration producing 50% of the maximum relaxation to the test compound) were interpolated from these plots.

[2] = tested on: VEGF-induced leakage rat model; experiment: VEGF-induced retinal vascular leakage rat model (Evans blue); format: in vivo; conditions: VEGF 100 ng/eye
Experimental: Pupils were dilated with 1% topical cyclopentolate hydrochloride to see the needle to guide the intravitreal injection. Recombinant rat vascular endothelial growth factor (VEGF; 100 ng/eye) or VEGF at 100 ng/eye plus test compounds were prepared in 0.5% carboxymethyl cellulose (CMC) in sterile saline and was injected into the vitreous with a 30-gauge needle (Xu, Q., et al. Invest. Ophthalmol. Vis. Sci., 42:789-794, 2001). The compounds of the invention were compared to corresponding steroid cores at equimolar doses. […] Control animals received vehicle. Compound (18) was similarly dosed alongside triamcinolone acetonide for comparison.
Retinal vascular leakage was measured as described previously (Xu, Q., et al. Invest. Ophthalmol. Vis. Sci., 42:789-794, 2001). After about 18 hours post injection of test compounds, rats were anesthetized with ketamine (80 mg/kg) and xylazine (4 mg/kg) IP. Then 45 mg/kg Evans blue (EB) was injected into the jugular vein. The dye was allowed to circulate for 2 hours. The chest cavity was opened and rats then perfused with 1% formalin in 0.5 M citrate buffer (pH 3.5, 37° C.) through the left ventricle. Retinas were carefully dissected from enucleated eyes, placed in pre-weighed Eppendorf tubes, dried in speed vacuum overnight and dry weights recorded. Evans blue was extracted by incubating each retina in 120 μl formamide for 18 hours at 70° C., centrifuged for 2 hours at 6000 rpm. Absorbance of 60 μl of extract was measured at 620 nm and background absorbance was determined at 740 nm. Net absorbance was calculated by subtracting the background 740 nm from that at 620 nm. Measurement of a standard curve of Evans blue in formamide was also done and Evans blue leakage expressed as μl/g/h was calculated as shown below: [EB(ng/ml)×120 (μl)×1000]/[dry weight retina (mg)×circulation time (h)×plasma EB(ng/ml)×100]

IL-6 = IL-6 content in aqueous humor (ELISA), ET-1 induced ischemia; format: in vivo, rabbit; conditions: ET-1 treated rabbits; 0.5 mg (equivalent)/eye IVT
Experimental: (§1) Aqueous humor samples were withdrawn from both anterior and posterior chamber fluids of each eye before ET-1 administration (T0), before the administration of Compound (1) or fluorocinolone acetonide (T2), and at the end of treatments (T6). The same volume of saline were reintroduced every time. The aqueous humor samples were immediately frozen at −80° C. until use.
(§2) Tumor necrosis factor (TNFα) and interleukin 6 (IL-6) were determined in aqueous humor with a commercial kit using an ELISA method (Amersham Pharmacia Biotech). The minimum detectable concentrations were 0.10 pg/ml for IL-6 and TNFα. The interassay coefficient of variation was 0.7% for all assays.

ophthalmic artery = experiment: Ocular haemodynamics (Color Doppler Imaging, Pourcelot Resistance Index) in ET-1 induced ischemia; format: in vivo, rabbit
Experimental: Haemodynamic evaluations were performed using an eco-color-doppler DynaView TM II SSD-1700 (Aloka Holding Europe AG, Milan, Italy). All animals underwent Color Doppler Imaging (CDI) investigation before ET-1 injection (T0), before the start of drug instillation (T2) and at the end of the drug treatment (T6). Special attention was devoted to the evaluation of ophthalmic and ciliary artery circulation. Blood flow velocities were measured for each vessel and the Pourcelot Resistance Index (RI) was calculated (Galassi F. et al., Acta Opht. Scand Suppl. (2000) 37-38).

retinal tissue = experiment: Retina protection: morphological analysis, ET-1 induced ischemia; format: in vivo, rabbit; conditions: long term ET-1 treatment; 0.5 mg (equivalent)/eye IVT
Experimental: The eyes of each animal was enucleated, cornea and crystalline were removed and the eyes was paraformaldehyde-fixed. Then samples were dehydrated with increasing alcohol concentration (50°-75°-95°-100°). After 95° alcohol treatment, the eyes were divided into two parts following a longitudinal plain from cornea to insertion of optical nerve. Thus the samples were paraffin-embedded. Section 8 μm thick were stained with Haematoxylin-Eosin. Microscopical fields were registered by digitizing camera applied a light microscope with a 20× and 40× objective. On the digitized images was performed a morphological analysis of retinal tissue.

VEGF = VEGF content in aqueous humor, ET-1 induced ischemia; format: in vivo, rabbit; conditions: ET-1 treated rabbits; 0.5 mg (equivalent)/eye IVT
TNFα = TNFα content in aqueous humor (ELISA), ET-1 induced ischemia; format: in vivo, rabbit; conditions: ET-1 treated rabbits; 0.5 mg (equivalent)/eye IVT
Experimental: as §1, §2

Brown Norway rats = experiment: Steroid-induced intraocular pressure (IOP) elevation in rats after intravitreal injection; conditions: 39.1 μg/eye (25 μg/eye equivalent) intravitreal
Excerpt: Male Brown Norway rats (250-275 g; Charles River laboratory) were acclimated for a week before IOP measurements. Baseline IOP measurements with Tonolab Tonometer (Tiolat Inc) were done in conscious rats (Pease, M. E., et al J. Glaucoma, 15:512-519, 2006) before intravitreal injection of test compounds. Then the rats were anesthetized with isoflurane inhalation and a drop of 0.5% tetracaine was topically applied on the eyes. Pupils were dilated with 1% topical cyclopentolate hydrochloride and 2.5% phenylephrine HCl to see the needle to aim the intravitreal injection of test compounds. […] For example, to compare to fluocinolone acetonide at both 25 and 50 μg/eye, compound (1) was dosed at 42.4 and 84.7 μg/eye, respectively. The des-nitro analog of compound (1) was dosed at 39.1 μg/eye (equivalent for 25 μg FC). Control animals received vehicle.
Five measurements were averaged for each time point. IOP measurements were taken at one and two weeks after intravitreal injection of test compounds.

[3] = rabbit aortic rings precontracted with methoxamine 3 μM

SMILES: CC1(C)O[C@@H]2CC3C4CCC5=CC(=O)C=C[C@]5(C)[C@@]4(F)[C@@H](O)C[C@]3(C)[C@]2(C(=O)COC(=O)Oc2cc(C(=O)OCCCCO[N+](=O)[O-])cc(O)c2O)O1 (stereo partly drawn) [Compound (10), 4-(nitrooxy)butyl 3-((2-((9R,10S,11S,13S,16R,17S)-9-fluoro-11-hydroxy-16,17-((1-methylethylidene)bis(oxy))-10,13-dimethyl-3-oxo-6,7,8,9,10,11,12,13,14,15,16,17-dodecahydro-3H-cyclopenta[a]phenanthren-17-yl)-2-oxoethoxy)carbonyloxy)-4,5-dihydroxybenzoate]
EC50 [1, 3]: 2.35 ± 0.98 µM

EC50 (concentration producing 50% of the maximum relaxation) [1, 3]: no effect
SMILES: CC1(C)O[C@@H]2C[C@H]3[C@@H]4CCC5=CC(=O)C=C[C@]5(C)[C@@]4(F)[C@@H](O)C[C@]3(C)[C@]2(C(=O)CO)O1 [TAAC, Triamcinolone acetonide]
reduction of VEGF-induced leakage ([2]; 10 μg/eye intravitreal): 67.5%

SMILES: CC1(C)O[C@@H]2CC3C4C[C@H](F)C5=CC(=O)C=C[C@]5(C)[C@@]4(F)[C@@H](O)C[C@]3(C)[C@]2(C(=O)COC(=O)Oc2cc(C(=O)OCCCCO[N+](=O)[O-])cc(O)c2O)O1 (stereo partly drawn) [Compound (6), 4-(nitrooxy)butyl 3-((2-((6S,9R,10S,11S,13S,16R,17S)-6,9-difluoro-11-hydroxy-16,17-((1-methylethylidene)bis(oxy))-10,13-dimethyl-3-oxo-6,7,8,9,10,11,12,13,14,15,16,17-dodecahydro-3H-cyclopenta[a]phenanthren-17-yl)-2-oxoethoxy)carbonyloxy)-4,5-dihydroxybenzoate]
EC50 [1, 3]: 1.44 ± 0.41 µM

SMILES: COc1cc(C(=O)OCCCCO[N+](=O)[O-])ccc1OC(=O)OCC(=O)[C@@]12OC(C)(C)O[C@@H]1CC1C3C[C@H](F)C4=CC(=O)C=C[C@]4(C)[C@@]3(F)[C@@H](O)C[C@@]12C (stereo partly drawn) [Compound (1), 4-(nitrooxy)butyl 4-((2-((6S,9R,10S,11S,13S,16R,17S)-6,9-difluoro-11-hydroxy-16,17-16,17-(1-methylethylidenebis(oxy))-10,13-dimethyl-3-oxo-6,7,8,9,10,11,12,13,14,15,16,17-dodecahydro-3H-cyclopenta[a]phenanthren-17-yl)-2-oxoethoxy)carbonyloxy)-3-methoxybenzoate]
IL6 content in aqueous humor (IL-6): 15.70 ± 1.73 pg/mL | Resistence Index (ophthalmic artery; After 2 weeks (before drug instillation, T2)): 0.43 ± 0.08 | Resistence Index (ophthalmic artery; After 6 weeks (end of drug treatment), 0.5 mg (equivalent)/eye IVT): 0.41 ± 0.03 | Resistence Index (ophthalmic artery; Basal): 0.43 ± 0.06 | ET-1 induced morphological changes of retinal tissue (retinal tissue): not equally present | EC50 [1]: 2.2 µM | VEGF content in aqueous humor (VEGF): 105.79 ± 1.98 pg/mL | TNFα content in aqueous humor (TNFα): 18.93 ± 0.98 pg/mL | inhibition of VEGF-induced leakage ([2]; 42.4 μg/eye intravitreal (equimolar to 25 μg/eye FC), 18 hours after injection): 77.1%

SMILES: COc1cc(C(=O)OCCCCC(CO[N+](=O)[O-])O[N+](=O)[O-])ccc1OC(=O)OCC(=O)[C@@]12OC(C)(C)O[C@@H]1CC1C3C[C@H](F)C4=CC(=O)C=C[C@]4(C)[C@@]3(F)[C@@H](O)C[C@@]12C (stereo partly drawn) [Compound (3), 5,6-bis(nitrooxy)hexyl 4-((2-((6S,9R,10S,11S,13S,16R,17S)-6,9-difluoro-11-hydroxy-16,17-((1-methylethylidene)bis(oxy))-10,13-dimethyl-3-oxo-6,7,8,9,10,11,12,13,14,15,16,17-dodecahydro-3H-cyclopenta[a]phenanthren-17-yl)-2-oxoethoxy)carbonyloxy)-3-methoxybenzoate]
EC50 [1, 3]: 0.21 ± 0.07 µM

IOP compared to compound (1) at 42.4 μg/eye (FIG. 4) (Brown Norway rats): increase in IOP
SMILES: CCCCOC(=O)c1ccc(OC(=O)OCC(=O)C23OC(C)(C)OC2CC2C4CC(F)C5=CC(=O)C=CC5(C)C4(F)C(O)CC23C)c(OC)c1 [des-nitro analog of compound (1), Butyl 4-((2-((6S,9R,10S,11S,13S,16R,17S)-6,9-difluoro-11-hydroxy-16,17-16,17-(1-methylethylidenebis(oxy))-10,13-dimethyl-3-oxo-6,7,8,9,10,11,12,13,14,15,16,17-dodecahydro-3H-cyclopenta[a]phenanthren-17-yl)-2-oxoethoxy)carbonyloxy)-3-methoxybenzoate]

SMILES: COc1cc(C(=O)OCCOCCOCCO[N+](=O)[O-])ccc1OC(=O)OCC(=O)[C@@]12OC(C)(C)O[C@@H]1CC1C3C[C@H](F)C4=CC(=O)C=C[C@]4(C)[C@@]3(F)[C@@H](O)C[C@@]12C (stereo partly drawn) [Compound (5), 2-(2-(2-(nitrooxy)ethoxy)ethoxy)ethyl 4-((2-((6S,9R,10S,11S,13S,16R,17S)-6,9-difluoro-11-hydroxy-16,17-((1-methylethylidene)bis(oxy))-10,13-dimethyl-3-oxo-6,7,8,9,10,11,12,13,14,15,16,17-dodecahydro-3H-cyclopenta[a]phenanthren-17-yl)-2-oxoethoxy)carbonyloxy)-3-methoxybenzoate]
EC50 [1, 3]: 0.83 ± 0.25 µM

SMILES: COc1cc(C(=O)OCCCCO[N+](=O)[O-])ccc1OC(=O)OCC(=O)[C@@]12OC(C)(C)O[C@@H]1CC1C3CCC4=CC(=O)C=C[C@]4(C)[C@@]3(F)[C@@H](O)C[C@@]12C (stereo partly drawn) [Compound (18), 4-(nitrooxy)butyl 4-((2-((9R,10S,11S,13S,16R,17S)-9-fluoro-11-hydroxy-16,17-(1-methylethylidenebis(oxy))-10,13-dimethyl-3-oxo-6,7,8,9,10,11,12,13,14,15,16,17-dodecahydro-3H-cyclopenta[a]phenanthren-17-yl)-2-oxoethoxy)carbonyloxy)-3-methoxybenzoate]
EC50 [1, 3]: 1.56 µM | reduction of VEGF-induced leakage ([2]; dose equivalent to 10 μg/eye triamcinolone acetonide, intravitreal): 54.3%
